Test: gradient 5% acetonitrile 3 min, to 50% in 2 min, to 85% in 15 min, held 3 min, 100 µL/min
Conditions: column: Zorbax Extend-C18 2.1 x 50 mm; eluents: water / acetonitrile, 0.1% formic acid
In short: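 Retention times come from adduct peaks that were picked computationally and then checked by hand. The standards, pure and pooled in mixtures of ~100 molecules, were run on a Zorbax Extend-C18 column (2.1 × 50 mm, 1.8 μm) at 100 μL/min with water and acetonitrile, each with 0.1% formic acid. Detection was by quadrupole time-of-flight mass spectrometry in positive and negative ionization mode, with a dead volume of 40 μL and a dwell volume of 900 μL.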

Structure (SMILES)	RP-LC retention time
CC(=O)c1ccc(NC(=O)CC2COc3ccccc3NC2=O)cc1 (centres undefined)	677 s
O=C(Nc1cccc(C(F)(F)F)c1)Nc1c(-c2ccncc2)nc2ccccn12	655 s
CC(=O)Nc1ccc(-n2cnc(C(=O)NCc3ccccc3F)c2)nc1	663 s
CN(CCCNC(=O)C1CCCN(S(=O)(=O)c2ccc3c(ccn3C)c2)C1)Cc1ccccc1 (centres undefined)	696 s
CC(NC(=O)c1cccc(NC(=O)c2ccco2)c1)C(=O)N1CCCc2ccccc21 (centres undefined)	804 s
Cc1sc(-c2nc(C(C)C)cs2)cc1S(=O)(=O)N1CCN(c2ccccn2)CC1	908 s
Cc1cccc(N(C)S(=O)(=O)c2ccc3c(c2)CCCC(=O)N3)c1	813 s
COC(=O)N1CCc2ccc(F)cc2C1C(=O)Nc1ncc(C)s1 (centres undefined)	788 s
Cc1onc(-c2ccccc2Cl)c1C(=O)NCCN(C)C	591 s
CC1=C(c2ccccc2)S(=O)(=O)N=C1N1CCCN(C(=O)c2ccsc2)CC1	571 s
CCc1ccc(C2=C(C)C(N3CCCN(C(=O)NCCCOC)CC3)=NS2(=O)=O)cc1	761 s
COc1cc2c(cc1OC)C(C(=O)Nc1ccc3c(c1)OCO3)C(c1cccs1)N(C)C2=O (centres undefined)	790 s
O=C1C(=O)N(Cc2ccc(C(=O)N3CCCCCC3)cc2)CCN1Cc1ccc(F)cc1	728 s
Cc1ccc(S(=O)(=O)N2CCC(n3cnnc3C3CC3)CC2)cc1Cl	809 s
Cc1ccc(-c2noc(C3CCCN3S(=O)(=O)c3ccc(C(C)C)cc3)n2)cc1 (centres undefined)	1310 s
Cc1nc(-c2ccccc2)sc1C(=O)Nc1nc(-c2ccccc2)c(C)s1	1210 s
COCCn1c(CCCC(=O)N2CCN(c3ncccn3)CC2)nc2cccnc21	596 s
COc1ccc(-n2c(=O)n(C)c(=O)c3cc(C(=O)NC(C)c4ccc(F)cc4)cnc32)cc1 (centres undefined)	888 s
Cc1cc(Cl)ccc1OCC(=O)NCC1CCOCC1	828 s
CCOC(=O)C1CCCN(Cc2nc3nc(C)cc(N4CCC(C)CC4)n3n2)C1 (centres undefined)	652 s
Cc1noc(C2(NC(=O)c3ccc(C(C)(C)C)cc3)CCCCC2)n1	1090 s
O=C(NCCc1c[nH]c2ccccc12)c1noc2c1CSc1ccccc1-2	1130 s
CC(NC(=O)CCCn1c2ccccc2c2cnn(C)c(=O)c21)c1ccc2c(c1)OCCO2 (centres undefined)	842 s
CCOc1ccc(-n2c(=O)c3sccc3n(Cc3nc(-c4ccccc4OCC)no3)c2=O)cc1	1020 s
COC(=O)c1ccc(C2CC(=O)Nc3c(-c4ccc(OC)cc4)csc32)cc1 (centres undefined)	1000 s

Structure (SMILES)	RP-LC retention time
Cc1c(S(=O)(=O)N2CCCC(C)C2)c(C)n(C)c1C(=O)N1CCc2ccccc21 (centres undefined)	1070 s
COC(=O)c1ccc2c(=O)n(-c3cccc(F)c3)c(N3CCCCC3)nc2c1	1150 s
COc1ccc(OC)c(S(=O)(=O)N2CCCC(C(=O)Nc3ccc(C(N)=O)cc3)C2)c1 (centres undefined)	689 s
Cc1nn(-c2ccccc2)c(C)c1S(=O)(=O)N1CCC(C(=O)N2c3ccccc3CC2C)CC1 (centres undefined)	1060 s
Cc1ccc(C2=NC3(CCN(C(=O)c4ccc5c(c4)OCO5)CC3)NC2=O)cc1C	831 s
CCOc1ccccc1C(=O)N1CCN(c2cc(-c3cccs3)[nH]n2)CC1	781 s
CCCN(C)C(=O)CCC1CCN(c2cc(NCC)ncn2)CC1	571 s
O=C(CC1CCCC1)N1CCCC1c1nc(C2CCOCC2)no1 (centres undefined)	780 s
Cc1c2cnn(-c3ccccc3)c(=O)c2c(C)n1CCCC(=O)N1CCN(c2ccccn2)CC1	611 s
CCCS(=O)(=O)N1CCc2ccc(NC(=O)Nc3cc(Cl)ccc3OC)cc2C1	995 s
CCNC(=O)N1CCc2c([nH]c3ccccc23)C12C(=O)N(C)c1ccc(Br)cc12 (centres undefined)	857 s
CCN(C(=O)Cn1ncc2c(c1=O)N(C)C(=O)CS2)c1cccc(C)c1	756 s
CCN(C(=O)C1CCCN1S(=O)(=O)c1cc2c(cc1Cl)NC(=O)CO2)c1cccc(C)c1 (centres undefined)	816 s
CCSc1nnc(NC(=O)CNC(=O)c2c[nH]c3ccccc23)s1	669 s
O=C(Nc1cc(F)cc(F)c1)c1c(O)c2cccnc2n(-c2cccc(F)c2)c1=O	1310 s
CC(C)NC(=O)c1cc2nc(N(C)C)n(-c3ccc(F)cc3)c2s1	627 s
CCCc1ccc(S(=O)(=O)N2CCC(n3cnc4ccc(C)cc4c3=O)CC2)cc1	1100 s
Cc1cc(N2CCN(S(=O)(=O)c3cc(F)ccc3C)CC2)nc(N2CCCC2)n1	783 s
Cc1nc(-c2noc(-c3ccc(F)cc3)n2)cn1CC(=O)Nc1cccc(Cl)c1	918 s
O=C(CC1CCCCC1)N1CCN(c2ccc(=O)n(-c3ccccc3)n2)CC1	857 s
O=C(Nc1ccc2c(c1)OCO2)c1nnc(C(=O)N2CCCC(C(=O)NC3CCCC3)C2)s1 (centres undefined)	860 s
CC1CCCCN1CCCNC(=O)Cn1ccc2cc(S(=O)(=O)N3CCCCCC3)ccc21 (centres undefined)	682 s
O=C(Cc1cccs1)Nc1cccc(OCc2nnc(-c3ccc(Cl)cc3)o2)c1	1010 s
Cc1cc(Cl)ccc1NC(=O)c1cccn1-c1cccnc1	798 s
CCc1ccc(S(=O)(=O)N2c3ccccc3CC2c2nnc(C3CCOCC3)o2)cc1 (centres undefined)	948 s

Other lines, results leading:

RP-LC retention time	Structure (SMILES)
1210 s	COc1ccc(Cl)cc1NC(=O)c1cc(S(=O)(=O)N2CCC(C)CC2)cn1C
1060 s	CCCn1c(=O)sc2cc(S(=O)(=O)N3CCC(C(=O)Nc4cc(C)cc(C)c4)CC3)ccc21
742 s	CCC(C)Nc1nc2c(c(=O)n(C)c(=O)n2C)n1C (centres undefined)
922 s	CCOC(=O)c1ccccc1NC(=O)CCCn1nc(-c2ccc(F)cc2)ccc1=O
640 s	O=C(CCC1CCCN(c2cc(NC3CC3)ncn2)C1)NCc1cccs1 (centres undefined)
836 s	Cc1cc(S(=O)(=O)N(C)CC2CCOC2)ccc1F (centres undefined)
692 s	O=C(c1cn[nH]c1)N1CCCC1Cc1noc(C2CCCC2)n1 (centres undefined)
684 s	Cc1nn(CC(=O)NCCCN2CCCC2=O)c(=O)c2cc(-c3ccccc3)nn12
997 s	O=C(Nc1ccccc1)N1CCc2nc(-c3ccc(Cl)cc3)ncc2C1
787 s	CCc1nc(-c2csc(S(=O)(=O)N3CCCC(C(=O)NC4CC4)C3)c2)no1 (centres undefined)
969 s	Cc1ccccc1NC(=O)Nc1ccc2c(c1)CCN2S(=O)(=O)c1ccccc1
927 s	CCCc1nc(-c2c(C)cc(C)nc2NC(=O)c2ccccc2Br)no1
632 s	Cc1noc(C)c1CC(=O)NCC12CCC=C1NC(=O)CC2 (centres undefined)
1100 s	CCc1ccccc1NS(=O)(=O)c1cc(-c2nc(C)cs2)sc1C
662 s	O=S(=O)(c1ccc2c(c1)CCC2)N1CCC(Cc2nc(-c3ccncc3)n[nH]2)C1 (centres undefined)
990 s	COC(=O)COc1cc(O)c2c(=O)cc(-c3ccccc3)oc2c1
575 s	O=C(O)c1cccnc1N1CCCCC1
699 s	O=C(CN1CCN(Cc2ccccc2F)C1=O)NCc1ccc(N2CCOCC2)cc1
950 s	Cc1cc(-c2nnc(-c3ccc(F)cc3)o2)c(C)n1CC(=O)NCc1ccccc1F
817 s	COc1ccc2cc(C(=O)N3CCC(CC(=O)NCCc4c[nH]c5ccc(C)cc45)CC3)[nH]c2c1

RP-LC retention time	Structure (SMILES)
659 s	Cc1ccc(-n2cc3c(c(C(=O)N4CCN(c5ccccn5)CC4)c2=O)CC(C)(C)CC3=O)cc1
633 s	Cc1ccccc1CN1CCN(CC(=O)NC2CCN(Cc3ccccc3)CC2)C(=O)C1=O
547 s	Cc1[nH]c(=O)[nH]c(=O)c1CCC(=O)Nc1ccccc1C(N)=O
950 s	Cc1onc(-c2ccccc2Cl)c1C(=O)NCC1(c2cccs2)CC1
1050 s	CCc1nn(C)c(=O)c2cc(S(=O)(=O)N3CCC(Cc4ccccc4)CC3)cn12
613 s	Cc1ccc(C(=O)N(C)C2CCc3nnc(C)n3CC2)s1 (centres undefined)
669 s	O=C(NCC1CCCO1)c1ccc(CN2CCN(Cc3ccccc3)C(=O)C2=O)cc1 (centres undefined)
605 s	O=C(Cn1c(=O)c2cccn2c2ccc(F)cc21)N1CCN(c2ccccn2)CC1
892 s	O=C(NCC(=O)N1CCCc2ccccc21)c1ccc(Br)cc1
677 s	Cn1c(N2CCN(C(=O)Cc3ccc(Cl)cc3)CC2)cc(=O)n(C)c1=O
755 s	O=C(NCCOc1ccccc1)Nc1cccs1
737 s	CCc1c(C(=O)O)nnn1-c1ccc(C)cc1F
734 s	O=C1NCCCCCN(C(=O)Nc2ccccc2F)[C@H]2CCC[C@@H]12
1070 s	COc1ccccc1NC(=O)c1ccc(Br)cc1F
1270 s	Cc1ccc(C)c(S(=O)(=O)N2CCC(c3noc(-c4ccccc4C)n3)CC2)c1
908 s	Cc1cc(NS(=O)(=O)c2cc(-c3ccn[nH]3)sc2C)ccc1Br
768 s	Cc1noc(C2CN(C(=O)Nc3ccc(C)c(C)c3)CC23CCOCC3)n1 (centres undefined)
796 s	O=C(C1CCCCC1)N1CCN(CC(F)(F)F)CC1
886 s	CN(C)S(=O)(=O)c1ccc(-c2nnc(C(=O)NC3CCCCC3)o2)cc1

Reference: the METLIN SMRT retention time set (Domingo-Almenara et al. 2019)
